Source: patent publication US20220031815A1, “ANIMAL FEED COMPOSITION AND USE THEREOF” (DSM IP ASSETS B.V., priority 2018, published 2022)

Test system: male broiler chickens (Cobb-500)
Assay: In vivo broiler trial 1: growth performance under litter/density challenge
Protocol: The trial was performed at Poultrz section, INTA-EEA Pergamino, Buenos Aires, Argentina from Aug. 15, 2017 to Oct. 3, 2017. Day-old male broiler chickens (“Cobb-500”), were supplied by a commercial hatchery (Granja Tres Arroyos, Tres Arroyos 378, Buenos Aires, Argentina).
Birds were housed in a conventional barn (netting open sides with curtains) into floor pens with shaving wood as litter. Gas heaters, fans and foggers were used to control the barn temperature.
All birds were weighed, separated in categories of 1 g and distributed to form homogenous lots. Birds of extreme weights were excluded.
Feed and waer were providing ad-libitum.
The experimental diets (Starter, Growing, Finisher and last week) were based on corn, soybean meal as main ingredients (Table 3). Phytase (RONOZYME® HiPhos GT, dose 1000 FYT/kg of feed, 100 g/tn of feed) was used in all the treatments. Rovimix broilders from DSM was used as vitamin-mineral premix, and maduramycin as coccidiostat. The composition of the feed was listed as Table 4
Individual body weight and pen feed intake were determined weekly.
Based on this information feed conversion and weight gain were calculated considering each phase and the complete cycle.
The live weight/feed conversion ratio was used. This is a simplification to avoid the impact of mortality when a low number of birds per pen is used (18 in this experiment).
Uniformity (% of birds included in a range of weights of […] of the pen mean body weight) was determined in each pen at 48 days of age.

With Enramycin the “effect on feed conversion” value (Enramycin significant from day 35, muramidase at day 7 and from day 21) was “the feed conversion was improved”, the “reduction of days to reach the slaughtering weight (2800 g)” value (effect of inclusion in feed (Enramycin 10 ppm; Muramidase 392 ppm)) was 1.1 days and the “effect on body weight” value (significant from day 21) was “an increment in body weight was observed”.
